# Reference: patent US20210169883A1, “METHOD OF TREATING AGGRESSION WITH OREXIN RECEPTOR ANTAGONISTS” (Icahn School of Medicine at Mount Sinai, priority 2018, published 2021)
# Entries after “also recorded” stand apart in the source; their conditions may differ. Read-outs that look alike come from different tables or passages of the source.
# Columns and labels:
# [1] = test system: putative glutamatergic LHb neurons; experiment: Slice optogenetic stimulation of LHb GAD2 neurons recording; format: cell-based, mouse
# OX1R = biological target: T1, OX1R (Homo sapiens, UniProt O43613); settings: less potent; cited from earlier work
# T1 sequence (O43613 1-425): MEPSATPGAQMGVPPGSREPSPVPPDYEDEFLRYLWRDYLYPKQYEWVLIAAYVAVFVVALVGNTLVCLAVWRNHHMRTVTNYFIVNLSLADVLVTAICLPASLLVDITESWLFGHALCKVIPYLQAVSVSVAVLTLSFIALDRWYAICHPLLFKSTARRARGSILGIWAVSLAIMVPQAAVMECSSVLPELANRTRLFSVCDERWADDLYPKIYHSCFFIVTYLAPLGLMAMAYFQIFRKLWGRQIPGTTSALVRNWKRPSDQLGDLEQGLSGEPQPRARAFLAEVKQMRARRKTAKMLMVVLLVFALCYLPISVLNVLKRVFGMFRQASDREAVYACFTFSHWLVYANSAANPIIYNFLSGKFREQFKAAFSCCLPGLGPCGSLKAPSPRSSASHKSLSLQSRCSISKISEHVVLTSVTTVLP
# OX2R = biological target: T2, OX2R (Homo sapiens, UniProt O43614); settings: cited from earlier work
# T2 sequence (O43614 1-444): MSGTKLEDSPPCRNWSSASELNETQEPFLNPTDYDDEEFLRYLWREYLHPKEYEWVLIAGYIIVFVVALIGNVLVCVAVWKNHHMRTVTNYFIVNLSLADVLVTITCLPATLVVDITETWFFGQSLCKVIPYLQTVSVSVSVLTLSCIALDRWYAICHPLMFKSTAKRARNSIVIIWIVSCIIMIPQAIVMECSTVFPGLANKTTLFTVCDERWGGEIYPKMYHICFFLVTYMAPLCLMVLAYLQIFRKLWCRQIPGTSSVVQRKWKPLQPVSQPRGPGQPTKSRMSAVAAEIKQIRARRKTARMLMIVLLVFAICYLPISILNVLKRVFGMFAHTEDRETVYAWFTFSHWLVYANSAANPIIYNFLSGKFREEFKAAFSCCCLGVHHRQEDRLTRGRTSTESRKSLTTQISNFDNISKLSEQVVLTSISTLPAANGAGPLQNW
# [2] = test system: aggressive (AGG) CD-1 mice; experiment: Aggression conditioned place preference (CPP), systemic EMPA (Example 1); format: in vivo, mouse; settings: EMPA 30 mg/kg I.P., vs vehicle, between-subjects
# Description: The aggression CPP protocol was carried out according to Golden et al. (6). Briefly, this task consisted of three phases: pre-test, acquisition (conditioning), and test. Mice were acclimated to the testing facility for 1 h before all testing. All phases were conducted under red light and sound-attenuated conditions. The CPP apparatus (Med Associates) consisted of two unique conditioning chambers with a neutral middle zone that allowed for unbiased entry into either conditioning chamber at the initiation of each trial. During the pre-test phase, mice were placed into the middle chamber of the conditioning apparatus and allowed to freely explore the apparatus for 20 min. There were no group differences in bias for either chamber, and conditioning groups were balanced in an unbiased fashion to account for pre-test preference. The acquisition phase consisted of three consecutive days with two conditioning trials each day for a total of 6 acquisition trials. Morning trials (between 8-10 AM) and afternoon trials (between 3-5 PM) consisted of experimental mice confined to one chamber for 10 min while in the presence or absence of a novel C57BL/6J intruder mouse. All groups were counterbalanced for the conditioning chamber. […] Total locomotor activity was also recorded to ensure equal exploratory behavior between groups. […]
# male CD-1 mice [3] = experiment: Object placement test (spatial memory); format: in vivo, mouse; settings: 30 mg/kg EMPA or 20 mg/kg seltorexant IP; one-way ANOVA
# Description: (§1) Vehicle comparison for these drugs consisted of 75% DMSO in sterile water alone. SR-9659 was dissolved in 20% DMSO in sterile water. Vehicle comparison for this drug consisted of 20% DMSO in water alone. All drugs were administered intraperitoneally (IP) 30 minutes before behavioral testing. All injection volumes were limited to 100 μl.
# Mice were presented with two of the same object in a first (training) session, and then one of the two objects was moved to a different location in the arena during a second (test) session. The time spent investigating each object provided an index of spatial memory. This was calculated by subtracting the time spent with the object in the familiar location from the time spent with the object in the novel location.
# male CD-1 mice [4] = experiment: Object recognition test; format: in vivo, mouse; settings: 30 mg/kg EMPA or 20 mg/kg seltorexant IP; one-way ANOVA
# Description: as §1
# Mice were presented with two different objects in a first (training) session, and then one of the two objects was replaced with a new object during a second (test) session. The time spent investigating each object provided an index of object recognition memory. This was calculated by subtracting the time spent with the familiar object from the time spent with the novel object.
# [5] = test system: aggressive (AGG) CD-1 mice; experiment: Resident intruder (RI) test, acute systemic EMPA (Example 1); format: in vivo, mouse
# Description: Aggression screening was performed as previously described by utilizing the resident intruder (RI) test (6). After a minimum of one week of habituation to home cages, experimental mice were exposed to a novel C57BL/6J intruder for 3 min daily over 3 consecutive days. Each intruder presentation was performed in the home cage of the experimental mouse between 12-3 PM daily under white light conditions. During RI sessions the cage top was removed to allow for unobstructed viewing and video recording of sessions. The duration and number of screening sessions were selected to prevent induction of stress- and anxiety-related behaviors in experimental CD-1 or F1 hybrid mice (6). All RI sessions were video recorded with a digital color video camera. Two blind observers recorded (1) the latency to initial aggression and (2) the total duration of aggression. The initiation of aggression was defined by the first clear physical antagonistic interaction initiated by the resident mouse (usually a bite), not including grooming or pursuit behavior. Aggression was considered completed when the resident mouse had reoriented away from the intruder following the initiation of attack. This definition allows for slight breaks (less than 5 s) in continuous physical interaction within an aggressive bout, assuming the resident mouse has remained oriented towards the intruder throughout. […]
# male CD-1 mice [6] = experiment: Social recognition test; format: in vivo, mouse; settings: 30 mg/kg EMPA or 20 mg/kg seltorexant IP; one-way ANOVA
# Description: as §1
# Mice were presented with two conspecific mice in a first (training) session, and then one of the two conspecific mice was replaced with an unfamiliar mouse in a second (test) session. The time spent by the test mouse investigating each conspecific mouse provided and index of social memory. This was calculated by subtracting the time spent with the novel mouse from the time spent with the familiar mouse.
# [7] = test system: aggressive (AGG) male CD-1 mice; format: in vivo, mouse
# Description: Aggression screening was performed as previously described by utilizing the resident intruder (RI) test (Golden et al., 2016b). After a minimum of one week of habituation to home cages, experimental mice were exposed to a novel C57BL/6J intruder for 3 min daily over 3 consecutive days. Each intruder presentation was performed in the home cage of the experimental mouse between 12-3 PM daily under white light conditions. During RI sessions the cage top was removed to allow for unobstructed viewing and video recording of sessions. The duration and number of screening sessions were selected to prevent induction of stress- and anxiety-related behaviors in experimental mice (Golden et al., 2016b). All RI sessions were video recorded with a digital color video camera. Two blind observers recorded (1) the latency to initial aggression and (2) the total duration of aggression. The initiation of aggression was defined by the first clear physical antagonistic interaction initiated by the resident mouse (usually a bite), not including grooming or pursuit behavior. Aggression was considered completed when the resident mouse had reoriented away from the intruder following the initiation of attack. This definition allows for slight breaks (less than 5 s) in continuous physical interaction within an aggressive bout, assuming the resident mouse has remained oriented towards the intruder throughout.
# as §1, with “(I.P.)” for “(IP)”
# First, mice were screened for three consecutive days in the RI test. Only AGGs were selected for subsequent pharmacology experiments, as it was hypothesized that treatment with orexin antagonists would reduce aggression. […] 24 hours following the last RI test, mice were treated again with either drug or vehicle and anxiety and locomotion were assessed using the open field test.
# [8] = cited from earlier work; for abuse potential: human, in vivo
# [9] = three days of RI, daily I.P. 30 min before test, EMPA 30 mg/kg, seltorexant 20 mg/kg, suvorexant 20 mg/kg
molecule,measurement,setting,value
picrotoxin,optically elicited monosynaptic inhibitory currents in putative glutamatergic LHb neurons,[1],completely blocked
orexin-B,potency in activating OX1R relative to orexin-A,OX1R,10 fold
same,potency towards OX2R relative to orexin-A,OX2R,equipotent
"CCN(Cc1cccnc1)C(=O)CN(c1ccc(OC)nc1)S(=O)(=O)c1ccccc1C [EMPA, N-ethyl-2-[(6-methoxy-pyridin-3-yl)-(toluene-2-sulphonyl)-amino]-N-pyridin-3-ylmethyl-acetamide]",aggression CPP,[2],reduced
same,"time spent with each object compared to vehicle treatment (spatial memory, object placement, FIG. 18B)",male CD-1 mice [3],did not alter
same,"time spent with each object compared to vehicle treatment (object recognition memory, FIG. 18C)",male CD-1 mice [4],did not alter
same,attack duration in RI test,"[5]; EMPA 30 mg/kg I.P. 25 min before test, vs vehicle, within-subjects",reduced
same,aggression (in RI),"[5]; systemic EMPA, 30 mg/kg, acute",reduces aggression; also recorded: reduced
same,"time spent with each mouse compared to vehicle treatment (social recognition, FIG. 18A)",male CD-1 mice [6],did not alter
same,"effects of OxR2 antagonism on aggression, EMPA versus seltorexant",[7]; over the three days of RI,virtually indistinguishable
same,latency to attack,[7]; [9],increased
same,total duration of attack,[7]; [9],reduced
Cc1ccc(-n2nccn2)c(C(=O)N2CCN(c3nc4cc(Cl)ccc4o3)CC[C@H]2C)c1 [suvorexant],abuse potential,[8],low abuse potential
same,tolerability in patient populations,[8]; variety of patient populations,well tolerated
same,reduction / attenuation of aggressive behavior,"[7]; RI test, doses tested",some attenuation of aggression
same,"number of mice that attacked, drug vs vehicle","[7]; any day of RI, suvorexant 20 mg/kg I.P., SR-9659 I.P.",no differences
same,latency to attack,[7]; [9],only altered attack latency and duration on day 3
same,total duration of attack,[7]; [9],only altered attack latency and duration on day 3
Cc1cc(C)nc(N2CC3CN(C(=O)c4c(F)cccc4-n4nccn4)CC3C2)n1 (stereo not shown) [seltorexant],"time spent with each object compared to vehicle treatment (spatial memory, object placement, FIG. 18B)",male CD-1 mice [3],did not alter
same,abuse potential,[8],low abuse potential
same,"time spent with each object compared to vehicle treatment (object recognition memory, FIG. 18C)",male CD-1 mice [4],did not alter
same,"time spent with each mouse compared to vehicle treatment (social recognition, FIG. 18A)",male CD-1 mice [6],did not alter
same,"effects of OxR2 antagonism on aggression, EMPA versus seltorexant","[7]; mouse, in vivo",virtually indistinguishable
same,latency to attack,"[7]; mouse, in vivo",increased
same,total duration of attack,"[7]; mouse, in vivo",reduced
